For assay [1], the target named is T1, EGFR (T790M/L858R) (Homo sapiens, UniProt P00533, L858R/T790M).
T1 construct: purchased Carna Biosciences, Inc
The experiment in a line: EGFR (T790M/L858R) kinase inhibitory activity. Format: biochemical. Conditions: ATP 1 μM, 25° C. for 120 minutes. On the procedure: The inhibitory activities of the compounds of the present invention against EGFR (T790M/L858R) kinase activity were measured.
(§1) Among the materials of the inhibitory activity measurement, the substrate peptide and the kinase protein were obtained as follows. A peptide with biotinylated N-terminus (biotin-EEPLYWSFPAKKK) was synthesized with reference to FL-Peptide 22, a reagent for LabChip® series of PerkinElmer, Inc. For the kinase protein, a purified recombinant human EGFR (T790M/L858R) protein of Carna Biosciences, Inc. was purchased.
(§2) The inhibitory activity measurement was performed as follows. The compounds of the present invention were individually dissolved in dimethyl sulfoxide (DMSO), and serial dilutions of these compounds were prepared using DMSO. Subsequently, a solution containing the substrate peptide (final concentration: 250 nM), magnesium chloride (final concentration: 10 mM), manganese chloride (final concentration: 10 mM), and ATP (final concentration: 1 μM) in a buffer solution for kinase reaction (Carna Biosciences, Inc.) was mixed with the dilutions of the compounds (final concentration of DMSO upon kinase reaction: 2.5%) or DMSO (final concentration: 2.5%). EGFR (T790M/L858R) protein was further added thereto, and the mixtures were incubated at 25° C. for 120 minutes to carry out a kinase reaction. EDTA was added thereto to a final concentration of 24 mM to thereby terminate the reaction. A phosphorylated thyrosine detection solution containing europium (Eu)-labeled anti-phosphorylated tyrosine antibody PT66 (PerkinElmer, Inc.) and SureLight APC-SA (PerkinElmer, Inc.) was added to the reaction mixtures, and the mixtures were allowed to stand at room temperature for 2 hours or more. For the background, a sample to which EDTA was added before addition of EGFR (T790M/L858R) protein was incubated at 25° C. for 120 minutes, using DMSO instead of the DMSO solution of the compound. The detection solution was also added to this sample, and the mixture was allowed to stand for 2 hours or more. Finally, for all of the test samples, the amount of fluorescence at the time of irradiation of excitation light having a wavelength of 337 nm was measured at dual wavelengths of 620 nm and 665 nm by PHERAstar FS (BMG LABTECH), and a ratio of the fluorescence amounts at the two wavelengths was obtained as data.
(§3) Based on the above rates, phosphorylation inhibition rates (%) were calculated for the samples to which various concentrations of the compound solutions were added. Finally, the obtained reaction inhibition rates (%) at the respective concentrations were plotted for each compound, and the IC50 value (nM), which is a compound concentration at which phosphorylation by EGFR (T790M/L858R) is inhibited by 50%, was determined using XLfit curve-fitting software (IDBS).

Assay [2] has as its target T2, EGFR (d746-750/T790M) (Homo sapiens, UniProt P00533, DEL746-750/T790M).
T2 construct: purchased Carna Biosciences, Inc
The experiment in a line: EGFR (d746-750/T790M) kinase inhibitory activity. In kind it is biochemical. The following applies: ATP 1.5 μM. Here is the method:
as §1, §2, §3
The inhibitory activities of the compounds of the present invention against EGFR (d746-750/T790M) kinase activity were measured.
The materials, the measurement method, and the data analysis method were substantially the same as those shown in the above description regarding “Measurement of EGFR (T790M/L858R) Kinase Inhibitory Activity,” except that a purified recombinant human EGFR (d746-750/T790M) protein purchased from Carna Biosciences, Inc. was used as the kinase protein, and the measurement was performed with an ATP final concentration of 1.5 μM. Finally, the IC50 value (nM) of each compound with respect to EGFR (d746-750/T790M) was determined by data analysis.

Assay [3] addresses T3, EGFR (L858R) (Homo sapiens, UniProt P00533, L858R).
T3 construct: purchased Carna Biosciences, Inc
The experiment in a line: EGFR (L858R) kinase inhibitory activity. Format: biochemical. Conditions: ATP 4 μM. Here is the method:
as §1, §2, §3
The inhibitory activities of the compounds of the present invention against EGFR (L858R) kinase activity were measured.
The materials, the measurement method, and the data analysis method were substantially the same as those shown in the above description regarding “Measurement of EGFR (T790M/L858R) Kinase Inhibitory Activity,” except that a purified recombinant human EGFR (L858R) protein purchased from Carna Biosciences, Inc. was used as the kinase protein, and the measurement was performed with ATP at a final concentration of 4 μM. Finally, the IC50 value (nM) of each compound with respect to EGFR (L858R) was determined by data analysis.

Assay [4] concerns the target T4, EGFR (d746-750) (Homo sapiens, UniProt P00533, DEL746-750).
T4 construct: purchased Carna Biosciences, Inc
Description: EGFR (d746-750) kinase inhibitory activity. Format: biochemical. The following applies: ATP 5 μM, kinase reaction 90 minutes. On the procedure:
as §1, §2, §3
The inhibitory activities of the compounds of the present invention against EGFR (d746-750) kinase activity were measured.
The materials, the measurement method, and the data analysis method were substantially the same as those shown in the above description regarding “Measurement of EGFR (T790M/L858R) Kinase Inhibitory Activity,” except that a purified recombinant human EGFR (d746-750) protein purchased from Carna Biosciences, Inc. was used as the kinase protein, the measurement was performed with ATP at a final concentration of 5 μM, and the incubation for the kinase reaction was performed for 90 minutes. Finally, the IC50 value (nM) of each compound with respect to EGFR (d746-750) was determined by data analysis.

Assay [5] deals with T5, EGFR (WT) (Homo sapiens, UniProt P00533).
T5 construct: expressing a cytoplasmic domain of human EGFR (WT) with its N-terminus fused to a FLAG tag; FLAG (N); made in house; host or cells: insect Sf9 cells, baculovirus expression system
T5 sequence (P00533 669-1210 limits assumed): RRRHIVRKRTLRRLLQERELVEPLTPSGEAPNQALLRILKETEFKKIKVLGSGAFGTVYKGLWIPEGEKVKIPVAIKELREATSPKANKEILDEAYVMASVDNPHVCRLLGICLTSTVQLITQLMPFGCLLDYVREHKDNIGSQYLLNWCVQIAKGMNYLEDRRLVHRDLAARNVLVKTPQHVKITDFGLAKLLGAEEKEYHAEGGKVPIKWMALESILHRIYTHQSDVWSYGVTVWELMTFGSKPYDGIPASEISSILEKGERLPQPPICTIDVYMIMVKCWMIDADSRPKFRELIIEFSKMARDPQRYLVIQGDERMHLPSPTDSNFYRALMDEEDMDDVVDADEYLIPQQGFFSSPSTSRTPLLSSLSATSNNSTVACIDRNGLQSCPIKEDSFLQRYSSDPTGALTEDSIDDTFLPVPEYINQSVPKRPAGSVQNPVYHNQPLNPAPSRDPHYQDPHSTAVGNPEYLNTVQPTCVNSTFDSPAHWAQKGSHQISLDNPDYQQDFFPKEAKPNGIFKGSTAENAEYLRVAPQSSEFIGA
The experiment in a line: EGFR (WT) kinase inhibitory activity. The following applies: substrate peptide 500 nM. Format: biochemical. On the procedure: as §1, §2, §3
The inhibitory activities of the compounds of the present invention against EGFR (WT) kinase activity were measured.
The materials, the measurement method, and the data analysis method were substantially the same as those shown in the above description regarding “Measurement of EGFR (T790M/L858R) Kinase Inhibitory Activity,” except that a kinase protein prepared by expressing a cytoplasmic domain of human EGFR (WT) with its N-terminus fused to a FLAG tag in insect Sf9 cells using a baculovirus expression system and then purifying it with anti-FLAG antibody agarose (Sigma-Aldrich) was used as the kinase protein, the final concentration of the substrate peptide was 500 nM, and the final concentration of ATP was […]. Finally, the IC50 value (nM) of each compound with respect to EGFR (WT) was determined by data analysis.

For assay [6], the system named is NCI-H1975 expressing EGFR (T790M/L858R). Description: Growth inhibition, NCI-H1975 expressing EGFR (T790M/L858R). In kind it is cell-based. The following applies: Homo sapiens, NCI-H1975, 72 h; cultured three days, CellTiter-Glo. On the procedure: (§4) (1) A human […] lung cancer cell line NCI-H1975 expressing EGFR (T790M/L858R), (2) a human non-small cell lung cancer cell line HCC827 expressing EGFR (d746-750), and (3) a human epithelioid cancer cell line A431 expressing EGFR (WT) were each suspended in complete growth medium recommended by ATCC. The cell suspensions were seeded in each well of a 384-well flat microplate or a 96-well flat plate, and cultured in an incubator containing 5% carbon dioxide gas at 37° C. for one day. Each compound of the present invention was dissolved in DMSO, and serial dilutions of the test compound were prepared using DMSO (to a concentration 500 times the final concentration). The DMSO solution of the test compound or DMSO was diluted with complete growth medium, and the resulting solution was added to each well of the cell culture plate so that the final concentration of DMSO was 0.2%. Then, the cells were cultured in an incubator containing 5% carbon dioxide gas at 37° C. for three days. The number of cells was measured before the addition of the DMSO solution of the test compound, as well as after addition and culture by using a CellTiter-Glo Assay® (produced by Promega) according to a protocol recommended by Promega.
(§5) For each cell, the cell growth inhibition rates of the wells to which the test compounds at various concentrations were added were calculated by the following formula. Then, the obtained inhibition rates (%) at the respective concentrations were plotted for each test compound, and the GI50 value (nM), which is a test compound concentration at which the cell growth can be inhibited by 50%, was determined using XLfit curve-fitting software (IDBS). • Cell Growth Inhibition Rate (%)=(C−T)/(C−CO)×100 • T: Luminescence intensity of well cultured for three days after addition of the test compound solution • C: Luminescence intensity of well cultured for three days after addition of DMSO • C0: Luminescence intensity of well before addition of the test compound solution
A general note: Cellular ATP, detected with luciferase, serves as a proxy for viable cell number.

Assay [7] has as its system HCC827 expressing EGFR (d746-750). Description: Growth inhibition, HCC827 expressing EGFR (d746-750). Format: cell-based. Conditions: Homo sapiens, HCC827, 72 h; cultured three days, CellTiter-Glo. On the procedure:
as §4, §5

Assay [8] relates to A431 expressing EGFR (WT). The experiment in a line: Growth inhibition, A431 expressing EGFR (WT). Format: cell-based. The following applies: Homo sapiens, A-431, 72 h; cultured three days, CellTiter-Glo. Here is the method:
as §4, §5

T4 sequence (P00533 with tags, fused parts or gaps DEL746-750 limits assumed): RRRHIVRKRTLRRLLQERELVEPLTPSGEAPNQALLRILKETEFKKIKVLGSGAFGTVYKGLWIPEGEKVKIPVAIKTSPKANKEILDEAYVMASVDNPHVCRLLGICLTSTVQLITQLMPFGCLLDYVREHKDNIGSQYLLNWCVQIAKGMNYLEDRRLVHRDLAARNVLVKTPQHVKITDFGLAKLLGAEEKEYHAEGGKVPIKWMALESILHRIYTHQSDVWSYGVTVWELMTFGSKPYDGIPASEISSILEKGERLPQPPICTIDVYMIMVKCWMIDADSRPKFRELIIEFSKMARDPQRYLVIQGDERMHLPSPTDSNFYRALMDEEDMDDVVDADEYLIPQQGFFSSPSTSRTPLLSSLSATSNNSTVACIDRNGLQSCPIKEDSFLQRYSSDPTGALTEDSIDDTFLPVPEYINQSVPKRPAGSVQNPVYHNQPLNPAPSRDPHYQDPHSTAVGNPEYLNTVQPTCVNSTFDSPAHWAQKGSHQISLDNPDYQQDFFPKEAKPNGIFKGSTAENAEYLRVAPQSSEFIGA
T1 sequence (P00533 25-1210 T790M/L858R): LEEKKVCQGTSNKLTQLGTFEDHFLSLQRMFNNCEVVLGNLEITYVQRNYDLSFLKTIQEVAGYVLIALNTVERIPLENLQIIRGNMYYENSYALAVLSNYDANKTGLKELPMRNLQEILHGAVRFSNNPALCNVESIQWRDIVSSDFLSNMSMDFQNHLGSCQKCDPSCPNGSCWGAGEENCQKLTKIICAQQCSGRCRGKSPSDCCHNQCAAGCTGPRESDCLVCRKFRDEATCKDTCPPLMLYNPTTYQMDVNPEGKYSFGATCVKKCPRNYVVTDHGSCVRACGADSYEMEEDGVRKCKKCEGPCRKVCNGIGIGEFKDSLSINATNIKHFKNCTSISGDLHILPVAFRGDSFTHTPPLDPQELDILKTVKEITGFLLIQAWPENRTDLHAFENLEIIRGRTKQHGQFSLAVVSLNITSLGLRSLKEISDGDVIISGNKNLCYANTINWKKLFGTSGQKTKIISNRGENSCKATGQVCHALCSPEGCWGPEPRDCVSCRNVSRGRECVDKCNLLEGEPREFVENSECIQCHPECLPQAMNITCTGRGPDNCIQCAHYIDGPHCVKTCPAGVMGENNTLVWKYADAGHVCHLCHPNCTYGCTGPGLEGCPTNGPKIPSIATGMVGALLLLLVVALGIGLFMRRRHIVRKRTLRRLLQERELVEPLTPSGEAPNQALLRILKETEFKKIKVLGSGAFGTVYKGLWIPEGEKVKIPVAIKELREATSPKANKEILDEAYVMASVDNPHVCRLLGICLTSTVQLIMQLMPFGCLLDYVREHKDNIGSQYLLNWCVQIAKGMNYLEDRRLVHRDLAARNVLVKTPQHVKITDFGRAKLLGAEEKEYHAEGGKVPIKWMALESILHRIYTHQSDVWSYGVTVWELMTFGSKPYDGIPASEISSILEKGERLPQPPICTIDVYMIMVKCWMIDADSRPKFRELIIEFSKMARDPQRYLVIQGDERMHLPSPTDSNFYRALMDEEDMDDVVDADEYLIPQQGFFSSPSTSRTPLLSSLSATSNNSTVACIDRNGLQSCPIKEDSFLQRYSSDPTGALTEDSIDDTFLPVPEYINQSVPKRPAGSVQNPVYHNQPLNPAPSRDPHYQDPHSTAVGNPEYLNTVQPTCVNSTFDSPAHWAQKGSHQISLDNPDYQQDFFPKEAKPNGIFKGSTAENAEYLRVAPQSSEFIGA
T3 sequence (P00533 25-1210 L858R): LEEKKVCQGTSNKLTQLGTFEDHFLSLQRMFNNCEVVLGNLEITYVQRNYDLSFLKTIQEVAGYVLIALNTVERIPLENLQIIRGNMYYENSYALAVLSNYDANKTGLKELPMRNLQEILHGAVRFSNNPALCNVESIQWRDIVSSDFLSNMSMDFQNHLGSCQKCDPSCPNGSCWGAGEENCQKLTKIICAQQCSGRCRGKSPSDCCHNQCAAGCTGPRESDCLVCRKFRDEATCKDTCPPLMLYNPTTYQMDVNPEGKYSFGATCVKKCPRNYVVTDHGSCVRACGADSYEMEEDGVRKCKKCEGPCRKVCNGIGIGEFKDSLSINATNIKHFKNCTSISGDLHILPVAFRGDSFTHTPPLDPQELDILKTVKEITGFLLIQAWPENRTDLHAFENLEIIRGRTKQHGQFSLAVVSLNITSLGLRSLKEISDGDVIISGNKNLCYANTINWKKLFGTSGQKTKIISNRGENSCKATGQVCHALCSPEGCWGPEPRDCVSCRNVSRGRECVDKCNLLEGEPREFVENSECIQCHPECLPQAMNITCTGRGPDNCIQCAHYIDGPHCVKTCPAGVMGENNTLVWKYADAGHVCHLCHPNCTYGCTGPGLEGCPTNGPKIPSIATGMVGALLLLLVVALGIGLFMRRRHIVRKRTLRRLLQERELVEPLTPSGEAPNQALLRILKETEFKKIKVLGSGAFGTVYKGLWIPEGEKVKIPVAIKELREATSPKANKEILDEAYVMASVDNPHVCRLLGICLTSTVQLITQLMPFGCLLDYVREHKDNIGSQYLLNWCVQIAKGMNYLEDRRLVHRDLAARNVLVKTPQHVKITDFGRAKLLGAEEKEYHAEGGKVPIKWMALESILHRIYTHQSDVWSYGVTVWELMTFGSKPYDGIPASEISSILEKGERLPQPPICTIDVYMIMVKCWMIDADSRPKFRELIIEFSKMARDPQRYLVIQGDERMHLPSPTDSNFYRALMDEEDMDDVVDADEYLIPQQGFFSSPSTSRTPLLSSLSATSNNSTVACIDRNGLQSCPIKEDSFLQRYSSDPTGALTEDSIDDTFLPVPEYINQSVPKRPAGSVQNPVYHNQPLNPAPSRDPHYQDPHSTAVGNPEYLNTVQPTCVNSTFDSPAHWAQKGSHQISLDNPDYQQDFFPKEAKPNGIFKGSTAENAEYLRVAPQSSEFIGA
T2 sequence (P00533 with tags, fused parts or gaps DEL746-750/T790M limits assumed): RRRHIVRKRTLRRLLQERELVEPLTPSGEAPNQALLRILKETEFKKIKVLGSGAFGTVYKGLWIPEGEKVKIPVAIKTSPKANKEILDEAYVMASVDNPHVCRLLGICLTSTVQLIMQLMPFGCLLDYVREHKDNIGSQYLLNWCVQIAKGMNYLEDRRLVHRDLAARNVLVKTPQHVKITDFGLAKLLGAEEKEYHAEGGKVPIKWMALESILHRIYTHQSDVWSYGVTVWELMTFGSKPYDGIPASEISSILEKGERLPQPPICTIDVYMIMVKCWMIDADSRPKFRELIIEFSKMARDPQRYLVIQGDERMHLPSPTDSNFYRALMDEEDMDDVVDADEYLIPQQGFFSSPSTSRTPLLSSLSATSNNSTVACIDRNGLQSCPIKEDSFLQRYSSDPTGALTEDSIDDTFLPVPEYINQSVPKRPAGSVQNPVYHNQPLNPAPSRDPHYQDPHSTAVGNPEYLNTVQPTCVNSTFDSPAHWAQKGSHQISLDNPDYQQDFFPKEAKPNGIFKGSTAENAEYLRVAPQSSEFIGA

Regarding `C=CC(=O)N(C)[C@H]1Cn2c(c(-c3cnc4ccccc4c3)c3c(N)ncnc32)C1=C` [Example 21, (R)—N-(4-amino-6-methylene-5-(quinolin-3-yl)-7,8-dihydro-6H-pyrimido[5,4-b]pyrrolizin-7-yl)-N-methylacrylamide], the IC50 was found to be 0.6 nM in assay [1]; 0.34 nM in assay [2]; 1.1 nM in assay [3]; 0.72 nM in assay [4]; 7.8 nM in assay [5]. The GI50 in assay [6] came out at 56 nM; in assay [7], 8.1 nM; in assay [8], 2600 nM.
With `C=C1c2c(-c3cnc4ccccc4c3)c3c(N)ncnc3n2C[C@H]1NC(=O)/C=C/CN(C)C` [Example 4, (S,E)-N-(4-amino-6-methylene-5-(quinolin-3-yl)-7,8-dihydro-6H-pyrimido[5,4-b]pyrrolizin-7-yl)-4-(dimethylamino)but-2-enamide], the IC50 was 0.4 nM in assay [1]; less than 0.5 nM in assay [2]; 0.63 nM in assay [3]; 0.45 nM in assay [4]; 6 nM in assay [5]. Also, the GI50 in assay [6] was determined as 140 nM; in assay [7], 5.5 nM; in assay [8] it was 2400 nM.
Take `C=CC(=O)N[C@H]1C=C(C)c2c(-c3cnc4ccccc4c3)c3c(N)ncnc3n2C1` [Example 14, (S)—N-(4-amino-6-methyl-5-(quinolin-3-yl)-8,9-dihydropyrimido[5,4-b]indolizin-8-yl)acrylamide]: the IC50 in assay [1] is 0.24 nM; in assay [2], less than 0.5 nM; in assay [3], 0.32 nM; in assay [4] it was 0.19 nM; in assay [5], 2.9 nM. The GI50 worked out at 22 nM in assay [6], 2.5 nM in assay [7] and 1900 nM in assay [8].
`C=CC(=O)N[C@@H]1CCn2c(c(-c3cnc4ccccc4c3)c3c(N)ncnc32)C1=C` [Example 13, (R)—N-(4-amino-6-methylene-5-(quinolin-3-yl)-6,7,8,9-tetrahydropyrimido[5,4-b]indolizin-7-yl)acrylamide]: the IC50 in assay [1] is 2.1 nM; in assay [2] it was 1.1 nM; in assay [3], 2.8 nM; in assay [4], 2.1 nM; in assay [5], 24 nM. Also, the values for the 50% growth inhibitory concentration (GI50) in assay [6], in assay [7] and in assay [8] were 150 nM, 13 nM and 1200 nM, respectively.
On to `C=CC(=O)N(C)[C@@H]1C=C(C)c2c(-c3cnc4ccccc4c3)c3c(N)ncnc3n2C1` [Example 23, (R)—N-(4-amino-6-methyl-5-(quinolin-3-yl)-8,9-dihydropyrimido[5,4-b]indolizin-8-yl)-N-methylacrylamide], for which the IC50 in assay [1] came to 0.44 nM; in assay [2] it was 0.3 nM; in assay [3], 0.63 nM; in assay [4] it was 0.29 nM; in assay [5] it was 7.3 nM. Also, the figures for the GI50 in assay [6], in assay [7] and in assay [8] were 47 nM, 3.3 nM and 5100 nM, respectively.
Take `C=C1c2c(-c3cnc4ccccc4c3)c3c(N)ncnc3n2C[C@H]1NC(=O)/C=C/Cl` [Example 5, (S,E)-N-(4-amino-6-methylene-5-(quinolin-3-yl)-7,8-dihydro-6H-pyrimido[5,4-b]pyrrolizin-7-yl)-3-chloroacrylamide]: the IC50 in assay [1] is less than 0.15 nM; in assay [2] it was less than 0.15 nM; in assay [3] it was less than 0.15 nM; in assay [4], less than 0.15 nM; in assay [5], 0.78 nM. For the same compound, the 50% growth inhibitory concentration (GI50) in assay [6] is 51 nM; in assay [7] it was 8.1 nM; in assay [8] it was 2200 nM.
Consider `C=C1c2c(-c3cnc4ccccc4c3)c3c(N)ncnc3n2C[C@H]1NC(=O)/C=C/CN(C)C(C)C` [Example 12, (S,E)-N-(4-amino-6-methylene-5-(quinolin-3-yl)-7,8-dihydro-6H-pyrimido[5,4-b]pyrrolizin-7-yl)-4-(isopropyl(methyl)amino)but-2-enamide], for which the IC50 amounted to 0.66 nM in assay [1]; 0.29 nM in assay [2]; 1.2 nM in assay [3]; 0.75 nM in assay [4]; 11 nM in assay [5]. In addition, the 50% growth inhibitory concentration (GI50) was determined as 240 nM in assay [6], 7.9 nM in assay [7] and 3500 nM in assay [8].

As usually defined, the IC50 is the concentration that gives 50% inhibition. A low value points to higher potency. In general, GI50 refers to the concentration that inhibits growth by half. A low value points to greater sensitivity of the cells.

The record behind these values is US9758526B2, “Quinoline-substituted compound” (TAIHO PHARMACEUTICAL CO., LTD., priority 2013, dated 2017).
